# Assays:
# thrombin = details: in words; cited from earlier work
# [1] = in words; cited from earlier work
# [2] = in words; cited from earlier work; remark: listed apart in the source
# human alpha-thrombin [3] = molecular target: T1, human alpha-thrombin (Homo sapiens, UniProt P00734); assay: in vitro thrombin inhibition assay (Ki, chromogenic substrate Pefachrome t-PA); assay type: biochemical; details: human alpha-thrombin 0.2 nM; steady state velocities over 60 minutes; pH 7.5
# Protocol: The ability of the compounds of Example 11 and 14 to act as an inhibitor of thrombin catalytic activity was assessed by determining the compounds, inhibition constant, Ki.
# Enzyme activity was determined using the chromogenic substrate Pefachrome t-PA (CH3 SO2 -D-hexahydrotyrosine-glycyl-L-arginine-p-Nitroanilide), obtained from Pentapharm Ltd. The substrate was reconstituted in deionized water prior to use. Purified human alpha-thrombin (3000U/mg specific activity) was obtained from Enzyme Research Laboratories, Inc. The buffer used for all assays was HBSA (10 mM HEPES, pH 7.5, 150 mM sodium chloride, 0.1% bovine serum albumin).
# At time zero, 50 microliters of alpha-thrombin diluted in HBSA were added to the wells, yielding a final concentration of 0.2 nM in a total volume of 250 microliters. Velocities of chromogenic substrate hydrolysis which occurred over 60 minutes were measured by the change in absorbance at 405 nm using a Thermo Max® Kinetic Microplate Reader. […] The extent of substrate hydrolysis was less than 5% over the course of this assay.
# human alpha-thrombin [4] = molecular target: T1, human alpha-thrombin; assay: Thrombin (fIIa) IC50 assay for specificity determination; assay type: biochemical; details: 30-minute incubation
# Protocol: (§1) The ability of compounds of this invention to act as a selective inhibitor of thrombin catalytic activity was assessed by determining the concentration of test compound which inhibited the activity of this enzyme by 50%, (IC50), and comparing this value to that determined for some or all of the following related serine proteases: recombinant tissue plasminogen activator (rt-PA), plasmin, activated protein C (aPC), chymotrypsin and trypsin.
# (§2) The buffer used for all assays was HBSA (10 mM HEPES, pH 7.5, 150 mM sodium chloride, 0.1% bovine serum albumin). The assay for IC50 determinations was conducted by combining in appropriate wells of a Corning microtiter plate, 50 microliters of HBSA, 50 microliters of the test compound at a specified concentration (covering a broad concentration range) diluted in HBSA (or HBSA alone for Vo (uninhibited velocity) measurement), and 50 microliters of the enzyme diluted in HBSA. […] The initial velocity of chromogenic substrate hydrolysis was measured by the change in absorbance at 405 nm using a Thermo Max® Kinetic Microplate Reader over a 5 minute period in which less than 5% of the added substrate was utilized. […]
# Enzyme activity was determined using the chromogenic substrate, Pefachrome t-PA (CH3 SO2 -D-hexahydrotyrosine-glycyl-L-Arginine-p-nitroaniline, obtained from Pentapharm Ltd.). […]
# rt-PA = molecular target: T2, rt-PA (Homo sapiens, UniProt P00750); assay: Recombinant tissue plasminogen activator (rt-PA) IC50 assay; assay type: biochemical; details: maximal concentration 2500 nM
# T2 construct: purchased Genentech Inc. Activase
# Protocol: as §1, §2
# rt-PA catalytic activity was determined using the substrate, Pefachrome t-PA (CH3 SO2 -D-hexahydrotyrosine-glycyl-L-arginine-p-nitroanilide, obtained from Pentapharm Ltd.). […]
# Plasmin = Plasmin (Homo sapiens, UniProt P00747); assay: Plasmin IC50 assay; assay type: biochemical; details: maximal concentration 2500 nM
# Protocol: as §1, §2
# Plasmin catalytic activity was determined using the chromogenic substrate, S-2366 (L-pyro-Glu-Pro-Arg-pNa.HCl), which was obtained from DiaPharma Group. […]
# aPC = molecular target: T3, aPC (Homo sapiens, UniProt P04070); assay: Activated protein C (aPC) IC50 assay; assay type: biochemical; details: maximal concentration 2500 nM
# T3 construct: purchased Hematologic Technologies, Inc
# Protocol: as §1, §2
# aPC catalytic activity was determined using the chromogenic substrate, Pefachrome PC (delta-carbobenzloxy-D-lysine-L-prolyl-L-arginine-p-nitroanilide), obtained from Pentapharm Ltd.). […]
# Chymotrypsin = molecular target: T4, Chymotrypsin (Bos taurus, UniProt P00766); assay: Chymotrypsin IC50 assay; assay type: biochemical, bovine; details: maximal concentration 2500 nM
# T4 construct: bovine pancreatic a-chymotrypsin; purchased Worthington Biochemical Corp. CDI; host or cells: bovine pancreas
# Protocol: as §1, §2
# Chymotrypsin catalytic activity was determined using the chromogenic substrate, S-2586 (methoxy-succinyl-L-arginine-L-prolyl-L-tyrosyl-p-nitroanilide), which was obtained from DiaPharma Group. […]
# Trypsin = molecular target: T5, Trypsin (Bos taurus, UniProt P00760); assay: Trypsin IC50 assay; assay type: biochemical, bovine; details: 30-minute incubation
# T5 construct: bovine pancreatic trypsin; purchased Worthington Biochemical Corp. TRL3; host or cells: bovine pancreas
# T5 sequence (P00760 24-246): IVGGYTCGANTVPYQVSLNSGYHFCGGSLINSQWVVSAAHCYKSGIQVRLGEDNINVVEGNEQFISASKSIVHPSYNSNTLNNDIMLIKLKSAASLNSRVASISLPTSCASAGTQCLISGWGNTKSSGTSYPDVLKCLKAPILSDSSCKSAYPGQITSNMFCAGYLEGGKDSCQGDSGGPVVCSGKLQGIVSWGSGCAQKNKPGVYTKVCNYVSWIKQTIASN
# Protocol: as §1, §2
# Trypsin catalytic activity was determined using the chromogenic substrate, S-2222 (benzoyl-L-isoleucine-L-glutamic acid-(gamma-methyl ester)-L-arginine-p-nitroanilide), which was obtained from DiaPharma Group. […]
# [5] = in words; cited from earlier work; remark: listed apart in the source
# [6] = test system: atherosclerotic rabbit femoral artery; details: in words; cited from earlier work
# [7] = test system: thrombotic occlusion in rat carotid artery; details: dose that prevents complete thrombotic occlusion in 50% of animals, FeCl3 model; cited from earlier work
# T2 sequence (P00750 36-562): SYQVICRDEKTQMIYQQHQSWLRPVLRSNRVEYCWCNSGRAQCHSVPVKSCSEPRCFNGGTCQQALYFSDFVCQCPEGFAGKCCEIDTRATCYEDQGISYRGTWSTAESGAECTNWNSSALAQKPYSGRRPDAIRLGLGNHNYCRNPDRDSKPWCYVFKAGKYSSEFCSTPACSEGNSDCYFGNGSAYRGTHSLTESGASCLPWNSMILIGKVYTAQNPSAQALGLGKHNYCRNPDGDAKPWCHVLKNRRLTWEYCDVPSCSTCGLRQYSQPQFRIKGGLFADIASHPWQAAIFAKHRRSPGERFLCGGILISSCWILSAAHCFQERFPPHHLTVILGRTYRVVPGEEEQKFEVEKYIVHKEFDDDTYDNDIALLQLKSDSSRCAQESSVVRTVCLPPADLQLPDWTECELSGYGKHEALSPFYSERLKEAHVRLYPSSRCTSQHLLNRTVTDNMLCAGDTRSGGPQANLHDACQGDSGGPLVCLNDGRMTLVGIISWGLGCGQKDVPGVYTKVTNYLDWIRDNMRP
# Chain of Plasmin (P00747 581-810 limits assumed): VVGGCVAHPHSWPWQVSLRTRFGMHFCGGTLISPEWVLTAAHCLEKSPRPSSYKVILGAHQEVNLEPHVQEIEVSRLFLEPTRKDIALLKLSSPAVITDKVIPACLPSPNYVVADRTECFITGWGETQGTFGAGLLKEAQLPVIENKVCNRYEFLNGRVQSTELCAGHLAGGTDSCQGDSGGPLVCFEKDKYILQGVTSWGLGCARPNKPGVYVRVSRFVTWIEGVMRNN
# Chain of Plasmin (P00747 97-580 limits assumed): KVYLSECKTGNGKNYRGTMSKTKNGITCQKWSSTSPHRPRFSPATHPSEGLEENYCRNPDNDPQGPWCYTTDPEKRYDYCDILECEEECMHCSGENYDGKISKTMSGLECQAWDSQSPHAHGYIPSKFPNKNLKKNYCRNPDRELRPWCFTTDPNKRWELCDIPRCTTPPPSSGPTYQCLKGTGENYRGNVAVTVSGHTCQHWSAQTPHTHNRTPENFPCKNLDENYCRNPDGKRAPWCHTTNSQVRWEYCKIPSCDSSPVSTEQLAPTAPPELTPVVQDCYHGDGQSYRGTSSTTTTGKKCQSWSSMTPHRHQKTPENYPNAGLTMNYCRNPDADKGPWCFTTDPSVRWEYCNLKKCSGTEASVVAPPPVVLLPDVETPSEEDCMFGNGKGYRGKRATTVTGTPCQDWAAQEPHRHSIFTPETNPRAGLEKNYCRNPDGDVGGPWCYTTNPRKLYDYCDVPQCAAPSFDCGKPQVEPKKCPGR
# T3 sequence (P04070 212-450 limits assumed): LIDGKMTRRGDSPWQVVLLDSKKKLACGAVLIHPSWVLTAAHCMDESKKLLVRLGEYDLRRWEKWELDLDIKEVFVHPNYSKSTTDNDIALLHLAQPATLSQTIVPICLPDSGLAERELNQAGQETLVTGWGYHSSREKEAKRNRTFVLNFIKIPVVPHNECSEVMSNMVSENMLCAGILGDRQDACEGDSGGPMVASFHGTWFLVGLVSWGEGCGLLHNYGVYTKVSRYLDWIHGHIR
# T3 sequence (P04070 43-197 limits assumed): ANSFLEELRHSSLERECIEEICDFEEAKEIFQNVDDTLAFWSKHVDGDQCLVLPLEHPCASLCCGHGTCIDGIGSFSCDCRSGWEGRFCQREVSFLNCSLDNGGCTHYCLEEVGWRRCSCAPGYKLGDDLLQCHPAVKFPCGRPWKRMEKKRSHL
Compound,selectivity of thrombin inhibition (thrombin),Ki (human alpha-thrombin [3]) [nM],IC50 (human alpha-thrombin [4]) [nM],IC50 (rt-PA) [nM],IC50 (Plasmin) [nM],IC50 (aPC) [nM],IC50 (Chymotrypsin) [nM],IC50 (Trypsin) [nM],further results
"N=C(N)c1ccc(CC(=O)C(=O)O)cc1 [APPA, 4-amidinophenylpyruvic acid]","non-selective, inhibiting trypsin, plasmin and kallikrein",,,,,,,,toxicity [1]: low toxicity; pharmacokinetics [2]: favourable pharmacokinetics
"COc1c(NS(=O)(=O)Cc2ccccc2)ccc(C)c1CC(=O)N[C@H](C=O)CCCN=C(N)N [Example 14, N-[2-methoxy-3-(N-benzylsulfonylamino)-6-methylphenylacetyl]-L-argininal]",,1,1.44,> 2500,> 2500,> 2500,> 2500,1810,
"CS(=O)(=O)O.CS(=O)(=O)O.N=C(N)Nc1ccc(C(=O)Oc2ccc3cc(C(=N)N)ccc3c2)cc1 [FUT 175, 6-amidino-2-naphthyl-4-guanidinobenzoate dimethanesulfonate]",non-selective,,,,,,,,
Hirudin,,,,,,,,,antithrombotic / anticoagulant effect [5]: potent antithrombotic agent in vivo; inhibition of smooth muscle proliferation and associated restenosis [6]: effectively inhibit smooth muscle proliferation and the associated restenosis
"CC1CNc2c(cccc2S(=O)(=O)N[C@@H](CCCNC(=N)N)C(=O)N2CC[C@@H](C)C[C@@H]2C(=O)O)C1 (stereo partly drawn) [Argatroban, 2R,4R-4-methyl-1-[N-2-(3-methyl-1,2,3,4-tetrahydro-8-quinolinesulfonyl)-L-argininy]-2-piperdinecarboxylic acid]",,,,,,,,,ED50 [7]: 3.8 mg/kg
"Cc1ccc(NS(=O)(=O)Cc2ccccc2)c(O)c1CC(=O)N[C@H](C=O)CCCN=C(N)N [Example 11, N-[2-hydroxy-3-(N-benzylsulfonylamino)-6-methylphenylacetyl]-L-argininal]",,0.79,3.19,> 2500,> 2500,> 2500,> 2500,1140,

# From patent US6011047A, “Substituted 3-amino-2-hydroxyphenylacetamide derivatives as enzyme inhibitors” (priority 1997, dated 2000)
